From paper PMC3731320, “Identification of Benzimidazole Diamides as Selective Inhibitors of the Nucleotide-Binding Oligomerization Domain 2 (NOD2) Signaling Pathway” (PLoS ONE, 2013)

These compounds were tested on NOD2 (assay: MDP-stimulated IL-8 release in 293/hNOD2 cells (HTRF)). Conditions: Homo sapiens; MDP-stimulated IL-8 production assay in 293/hNOD2 cells; Figures 4 and 5; read-out: NOD2 IC50.
Assay type: cell-based, human
Experimental: After 24 hours the amount of IL-8 secreted into the medium was determined by homogeneous time resolved fluorescence (HTRF) assay by the direct addition of a 1:1 mix of europium cryptate and XL665-conjugated anti-IL-8 antibodies according to the manufacturer's instructions (Cisbio).

Row | IC50 | SMILES
1 | > 50 µM | O=C(Cn1c(CCNC(=O)c2ccccc2)nc2ccccc21)Nc1ccc2[nH]ccc2c1 [Compound 14, N-(2-(1-(2-(1H-indol-5-ylamino)-2-oxoethyl)-1H-benzo[d]imidazol-2-yl)ethyl)benzamide]
2 | 35.2 ± 9.1 µM | O=C(Cn1c(CCNC(=O)c2ccccc2)nc2ccccc21)Nc1ccc2c(c1)C(O)CC2 (stereo not drawn) [Compound 9, N-(2-(1-(2-((3-hydroxy-2,3-dihydro-1H-inden-5-yl)amino)-2-oxoethyl)-1H-benzo[d]imidazol-2-yl)ethyl)benzamide]
3 | > 50 µM | COc1ccc2c(c1)nc(CCNC(=O)c1ccccc1)n2CC(=O)Nc1ccc2c(c1)CCC2 [Compound 26, N-(2-(1-(2-((2,3-dihydro-1H-inden-5-yl)amino)-2-oxoethyl)-5-methoxy-1H-benzo[d]imidazol-2-yl)ethyl)benzamide]
4 | > 50 µM | O=C(Cn1c(CCNC(=O)c2cccc(Cl)c2)nc2ccccc21)Nc1ccc2c(c1)CCC2 [Compound 22, 3-chloro-N-(2-(1-(2-((2,3-dihydro-1H-inden-5-yl)amino)-2-oxoethyl)-1H-benzo[d]imidazol-2-yl)ethyl)benzamide]
5 | 1.6 ± 1.3 µM | O=C(Cn1c(CCNC(=O)c2ccccc2)nc2ccccc21)Nc1ccc2ccccc2c1 [Compound 5, N-(2-(1-(2-(naphthalen-2-ylamino)-2-oxoethyl)-1H-benzo[d]imidazol-2-yl)ethyl)benzamide]
6 | > 50 µM | COc1ccc2nc(CCNC(=O)c3ccccc3)n(CC(=O)Nc3ccc4c(c3)CCC4)c2c1 [Compound 27, N-(2-(1-(2-((2,3-dihydro-1H-inden-5-yl)amino)-2-oxoethyl)-6-methoxy-1H-benzo[d]imidazol-2-yl)ethyl)benzamide]
7 | > 50 µM | O=C(Cn1c(CCNC(=O)c2ccccc2)nc2ccccc21)Nc1ccc2c(c1)NCC2 [Compound 12, N-(2-(1-(2-(indolin-6-ylamino)-2-oxoethyl)-1H-benzo[d]imidazol-2-yl)ethyl)benzamide]
8 | > 50 µM | Cc1cccc(C(=O)NCCc2nc3ccccc3n2CC(=O)Nc2ccc3c(c2)CCC3)c1 [Compound 21, N-(2-(1-(2-((2,3-dihydro-1H-inden-5-yl)amino)-2-oxoethyl)-1H-benzo[d]imidazol-2-yl)ethyl)-3-methylbenzamide]
9 | 3.8 ± 1.4 µM | O=C(Cn1c(CCNC(=O)c2ccccc2Cl)nc2ccccc21)Nc1ccc2c(c1)CCC2 [Compound 16, 2-chloro-N-(2-(1-(2-((2,3-dihydro-1H-inden-5-yl)amino)-2-oxoethyl)-1H-benzo[d]imidazol-2-yl)ethyl)benzamide]
10 | > 50 µM | O=C(Cn1c(CCNC(=O)c2ccccc2)nc2ccccc21)Nc1ccc2c(c1)CCN2 [Compound 10, N-(2-(1-(2-(indolin-5-ylamino)-2-oxoethyl)-1H-benzo[d]imidazol-2-yl)ethyl)benzamide]
11 | > 50 µM | O=C(Cn1c(CCNC(=O)c2ccc(Cl)c(Cl)c2)nc2ccccc21)Nc1ccc2c(c1)CCC2 [Compound 19, 3,4-dichloro-N-(2-(1-(2-((2,3-dihydro-1H-inden-5-yl)amino)-2-oxoethyl)-1H-benzo[d]imidazol-2-yl)ethyl)benzamide]
12 | 1.6 ± 0.1 µM | Cc1ccc(NC(=O)Cn2c(CCN(C)C(=O)c3ccccc3)nc3ccccc32)cc1C [Compound 37, N-(2-(1-(2-((3,4-dimethylphenyl)amino)-2-oxoethyl)-1H-benzo[d]imidazol-2-yl)ethyl)-N-methylbenzamide]
13 | 0.3 ± 0.01 µM | CC(C)c1cccc(NC(=O)Cn2c(CCN(C)C(=O)c3ccccc3)nc3ccccc32)c1 [Compound 33, N-(2-(1-(2-((3-isopropylphenyl)amino)-2-oxoethyl)-1H-benzo[d]imidazol-2-yl)ethyl)-N-methylbenzamide]
14 | 0.9 ± 0.2 µM | CN(CCc1nc2ccccc2n1CC(=O)Nc1ccc(Cl)c(Cl)c1)C(=O)c1ccccc1 [Compound 35, N-(2-(1-(2-((3,4-dichlorophenyl)amino)-2-oxoethyl)-1H-benzo[d]imidazol-2-yl)ethyl)-N-methylbenzamide]
15 | 0.8 ± 0.5 µM | CC(C)c1cccc(NC(=O)Cn2c(CCNC(=O)c3ccccc3)nc3ccccc32)c1 [Compound 3, N-(2-(1-(2-((3-isopropylphenyl)amino)-2-oxoethyl)-1H-benzo[d]imidazol-2-yl)ethyl)benzamide]
16 | > 50 µM | Cc1cccc2c1nc(CCNC(=O)c1ccccc1)n2CC(=O)Nc1ccc2c(c1)CCC2 [Compound 28, N-(2-(1-(2-((2,3-dihydro-1H-inden-5-yl)amino)-2-oxoethyl)-4-methyl-1H-benzo[d]imidazol-2-yl)ethyl)benzamide]
17 | 20 µM | CN(C(=O)Cn1c(CCNC(=O)c2ccccc2)nc2ccccc21)c1ccc2c(c1)CCC2 [Compound 31, N-(2-(1-(2-((2,3-dihydro-1H-inden-5-yl)(methyl)amino)-2-oxoethyl)-1H-benzo[d]imidazol-2-yl)ethyl)benzamide]
18 | > 50 µM | O=C(Cn1c(CCNC(=O)c2ccccc2)nc2ccccc21)Nc1ccc(OCc2ccccc2)cc1 [Compound 11, N-(2-(1-(2-((4-(benzyloxy)phenyl)amino)-2-oxoethyl)-1H-benzo[d]imidazol-2-yl)ethyl)benzamide]
19 | 3.3 ± 2.1 µM | O=C(Cn1c(CCNC(=O)c2ccccc2)nc2ccccc21)Nc1ccc(Cl)c(Cl)c1 [Compound 8, N-(2-(1-(2-(3,4-dichlorophenylamino)-2-oxoethyl)-1H-benzo[d]imidazol-2-yl)ethyl)benzamide]
20 | > 50 µM | O=C(Cn1c(CCNC(=O)c2ccccc2)nc2ccccc21)Nc1ccc(Oc2ccccc2)cc1 [Compound 13, N-(2-(1-(2-oxo-2-((4-phenoxyphenyl)amino)ethyl)-1H-benzo[d]imidazol-2-yl)ethyl)benzamide]

Each compound was assayed on HCT116 cells (assay: Uptake of MDP-rhodamine by HCT116 cells (fluorescence microscopy)). Conditions: GSK669 up to 20 μM, chlorpromazine 20 μM, 1–4 hour.
Assay type: cell-based, human
Experimental: HCT116 cells seeded onto glass cover-slips at low density were pre-treated with GSK669 or the endocytosis inhibitor chlorpromazine for 30 minutes before addition of 2.5 μg/mL MDP-rhodamine. Live cells were viewed periodically over 6-hours incubation at 37 °C using a Nikon eclipse TE2000-E fluorescent inverted microscope fitted with a CCTV camera and rhodamine filter.

Row | SMILES | effect on uptake of Rhodamine-MDP into cells
21 | CN(C)CCCN1c2ccccc2Sc2ccc(Cl)cc21 [chlorpromazine, reference compound] | intracellular punctate fluorescence did not develop
